Measurements published in ChEMBL document CHEMBL1130399 (J Med Chem, 1997).
pEC50: −log10 of the molar value.

Tests used:
Cannabinoid receptor [1] = molecular target: T1, Cannabinoid receptor (Rattus norvegicus, UniProt Q9QZN9+P20272); experiment: Binding affinity towards cannabinoid receptor using [3H]CP-55940 as radioligand in rat brain membrane; type: cell membranes
Mus musculus [2] = species: Mus musculus; experiment: Effective concentration that causes twitch inhibition in a mouse vas deferens assay; type: functional, organism-based
Cannabinoid receptor [3] = molecular target: T1, Cannabinoid receptor; experiment: Binding affinity towards cannabinoid receptor using [3H]SR-141,716A as radioligand in rat brain membrane; type: cell membranes
Mus musculus [4] = species: Mus musculus; experiment: Maximal degree of inhibition of electrically evoked contractions in a mouse vas deferens assay; type: functional
Mus musculus [5] = species: Mus musculus; experiment: Inhibition of tail flick response[…] in mice was determined; type: functional
Mus musculus [6] = species: Mus musculus; experiment: Inhibition of spontaneous activity(SA) in mice was determined; type: functional
Mus musculus [7] = species: Mus musculus; experiment: Hypothermia measured as changes in rectal temperature (RT)
Mus musculus [8] = species: Mus musculus; experiment: Maximum possible effect for ring immobility (RI); type: functional
Mus musculus [9] = species: Mus musculus; experiment: Inhibition of ring immobility(RI) in mice was determined; type: functional
Mus musculus [10] = species: Mus musculus; experiment: Maximum possible effect for antinociception as measured by the tail flick response (TF); type: functional
Mus musculus [11] = species: Mus musculus; experiment: Inhibition of rectal temperature(RT) in mice was determined; type: functional
Mus musculus [12] = species: Mus musculus; experiment: Maximum possible effect for inhibition of spontaneous activity (SA); type: functional

| Structure (SMILES) | Ki (Cannabinoid receptor [1]) [nM] | pEC50 (Mus musculus [2]) | Ki (Cannabinoid receptor [3]) [nM] | Emax (Mus musculus [4]) [%] | ED50 (Mus musculus [5]) [mg/kg] | ED50 (Mus musculus [6]) [mg/kg] | rectal temperature change (Mus musculus [7]) [°C] | MPE (Mus musculus [8]) [%] | ED50 (Mus musculus [9]) [mg/kg] | MPE (Mus musculus [10]) [%] | ED50 (Mus musculus [11]) [mg/kg] | MPE (Mus musculus [12]) [%] |
| --- | --- | --- | --- | --- | --- | --- | --- | --- | --- | --- | --- | --- |
| CCCCC/C=C\C/C=C\C/C=C\C/C=C\CCCC(=O)NCCC | 2.6 | 7.96 | 238 | 51.2 |  |  |  |  |  |  |  |  |
| CCCCCCC(C)(C)/C=C\C/C=C\C/C=C\C/C=C\CCCC(=O)NCCC | 1.5 | 7.93 | 31 | 65.3 | 6.3 | 1.2 | -1.5 | 81 |  |  |  |  |
| CCCCC/C=C\C/C=C\C/C=C\C/C=C\CCCC(=O)NCCO [ANANDAMIDE] |  | 7.28 |  | 100 | 6.2 |  |  |  |  |  |  |  |
| CCCCCCC(C)(C)/C=C\C/C=C\C/C=C\C/C=C\CCCC(=O)N[C@H](C)CO | 1.7 | 7.22 | 220 | 65.2 | 1 | 1.1 | -2.8 | 85 | 2.4 | 100 | 6 | 95 |
| CCCCCCC(C)(C)/C=C\C/C=C\C/C=C\C/C=C\CCCC(=O)NCCOC | 3.9 | 7.44 | 54 | 44.6 | 13.3 | 4 | -1.5 | 86 | 5.7 | 100 |  | 98 |
| CCCCC/C=C\C/C=C\C/C=C\C/C=C\CCCC(=O)N[C@H](C)CO [METHANANDAMIDE] |  | 8.00 |  | 100 |  |  |  |  |  |  |  |  |
| CCCCC/C=C\C/C=C\C/C=C\C/C=C\CCCC(=O)NC[C@H](C)O | 57 | 7.44 |  | 71.7 |  |  |  |  |  |  |  |  |
| CCCCCCC(C)(C)/C=C\C/C=C\C/C=C\C/C=C\CCCC(=O)N[C@@H](C)CO | 5 | 7.55 | 161 | 67.2 | 4.8 | 2.6 | -2 | 80 | 2.5 | 100 | 5 | 90 |
| CCCCCCC(C)(C)/C=C\C/C=C\C/C=C\C/C=C\CCCC(=O)NCCO | 1.9 | 7.22 | 153 | 68.3 | 1.7 | 1.5 | -3.5 | 74 | 1 | 91 | 2.9 | 90 |
| CCCCC/C=C\C/C=C\C/C=C\C/C=C\CCCC(=O)NCCOC | 44 | 8.52 | 466 | 34 |  |  |  |  |  |  |  |  |
